Data reported in ChEMBL document CHEMBL1201862, “PubChem BioAssay data set” (2004).
Activity calls are given as the source filed them.

What was measured:
[1] = biological target: Hexokinase-1 (Homo sapiens, UniProt P19367); experiment: hexokinase 1 activators, dose response, selectivity assay for HKDC1 activator project, biochemical (AID 504762); assay type: functional
[2] = biological target: Heat shock protein HSP 90-alpha (Homo sapiens, UniProt P07900); assay type: functional, organism-based
[3] = biological target: T1, Hexokinase HKDC1 (Homo sapiens, UniProt Q2TB90); experiment: HKDC1 hexokinase activators, dose response, biochemical, W721R variant (AID 504730); assay type: functional
T1 sequence (Q2TB90 whole entry): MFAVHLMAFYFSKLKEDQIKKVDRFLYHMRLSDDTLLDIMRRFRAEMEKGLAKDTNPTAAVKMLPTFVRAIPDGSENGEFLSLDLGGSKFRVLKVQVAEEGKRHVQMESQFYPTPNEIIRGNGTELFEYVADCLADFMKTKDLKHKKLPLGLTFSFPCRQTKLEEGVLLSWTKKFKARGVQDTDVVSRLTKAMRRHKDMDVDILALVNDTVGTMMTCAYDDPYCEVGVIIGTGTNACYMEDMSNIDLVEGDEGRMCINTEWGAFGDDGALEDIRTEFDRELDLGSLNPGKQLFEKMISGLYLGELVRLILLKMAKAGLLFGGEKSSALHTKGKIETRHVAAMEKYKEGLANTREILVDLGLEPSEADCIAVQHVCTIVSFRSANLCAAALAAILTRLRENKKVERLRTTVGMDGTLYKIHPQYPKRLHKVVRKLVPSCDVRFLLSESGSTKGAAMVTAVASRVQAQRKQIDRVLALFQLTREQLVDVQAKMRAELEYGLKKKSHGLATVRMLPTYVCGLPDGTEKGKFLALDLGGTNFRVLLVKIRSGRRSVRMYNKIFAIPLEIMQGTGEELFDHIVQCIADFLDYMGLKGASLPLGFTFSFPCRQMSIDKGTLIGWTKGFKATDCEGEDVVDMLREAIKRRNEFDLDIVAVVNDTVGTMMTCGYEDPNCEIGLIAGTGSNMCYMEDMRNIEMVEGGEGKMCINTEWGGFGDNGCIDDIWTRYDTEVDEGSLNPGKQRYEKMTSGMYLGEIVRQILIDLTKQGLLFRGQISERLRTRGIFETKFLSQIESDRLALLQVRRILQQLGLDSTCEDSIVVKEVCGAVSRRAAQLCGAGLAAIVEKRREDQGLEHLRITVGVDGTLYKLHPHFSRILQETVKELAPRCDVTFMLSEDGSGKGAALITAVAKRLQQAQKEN

[4] = test system: HEK293; experiment: inhibitors of LMP1-driven NF-kB reporter, dose response, cell-based, HEK293, luciferase, cherry-pick (AID 588343); assay type: functional; details: Homo sapiens
[5] = biological target: Nonstructural protein 1 (Influenza A virus, UniProt Q194T2); assay type: functional, Influenza A virus (A/California/07/2009(H1N1))
[6] = cells
[7] = cytotoxicity toward NIH3T3 fibroblasts, dose response, counter-screen, cell-based, ATP luminescence, mouse fibroblasts (AID 2010); assay type: functional;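 also: cells exposed to compound for about 90 hours before reading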
[8] = biological target: T2, Type-1 angiotensin II receptor (Homo sapiens, UniProt P30556); experiment: AT1 receptor agonists, dose response, selectivity assay for APJ receptor agonist project, cell-based, uHTS hits (AID 488865); assay type: functional;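 also: beta-arrestin recruitment to AT1 measured by enzyme fragment complementation luminescence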
T2 sequence (P30556 whole entry): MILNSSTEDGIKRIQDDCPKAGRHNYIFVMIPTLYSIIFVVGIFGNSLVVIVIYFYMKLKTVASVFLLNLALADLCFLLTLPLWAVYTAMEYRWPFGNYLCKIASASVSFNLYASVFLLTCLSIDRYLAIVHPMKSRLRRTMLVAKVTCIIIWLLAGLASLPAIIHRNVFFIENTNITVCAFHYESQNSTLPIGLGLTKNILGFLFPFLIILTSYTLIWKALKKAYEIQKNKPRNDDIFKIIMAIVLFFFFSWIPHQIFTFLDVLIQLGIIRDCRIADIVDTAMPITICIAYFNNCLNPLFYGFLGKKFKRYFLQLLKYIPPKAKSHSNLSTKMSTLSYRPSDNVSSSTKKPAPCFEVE

[9] = inhibitors of intracellular T. cruzi replication, confirmation, NIH3T3 host cells, beta-gal luminescence (AID 2044); assay type: functional, cell-based;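 also: intracellular parasites grown in NIH/3T3 mouse fibroblasts as host cells; luminescent beta-galactosidase reporter signal from transgenic T. cruzi replicating inside host cells; inhibitors lower the luminescence signal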
[10] = cytotoxicity toward DRD oncogenic fibroblasts, dose response, cell-based, non-viral oncogenic, luminescence (AID 1934); assay type: functional; details: Homo sapiens
[11] = HEp-2 cell cytotoxicity, dose response, cytotoxicity control for RSV inhibitor project, HTS (AID 2410); assay type: functional; details: human respiratory syncytial virus
[12] = biological target: Melanocortin receptor 4 (Homo sapiens, UniProt P32245); assay type: functional, cell-based;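 also: Cell-based assay with luminescence read-out, confirmatory dose-response testing for agonist activity of biased ligands at MC4R; human U2OS cells with tagged receptor and beta-arrestin; potency of agonists that increase receptor coupling to beta-arrestin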
[13] = test system: BJ; experiment: cytotoxicity toward BJ-TERT-LT-ST fibroblasts, dose response, cell-based, RAS-independent, luminescence (AID 1935); assay type: functional; details: Homo sapiens;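 also: BJ fibroblasts immortalized with TERT plus LT and ST oncogenes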
[14] = test system: BJ; experiment: cells; assay type: functional, cell-based; details: Homo sapiens
[15] = test system: BJ; experiment: cytotoxicity toward BJ-TERT fibroblasts, dose response, cell-based, RAS-independent, luminescence (AID 1933); assay type: functional; details: Homo sapiens
[16] = biological target: DNA damage-inducible transcript 3 protein (Mus musculus, UniProt P35639); assay type: functional, Cricetulus griseus
[17] = biological target: T3, Heat shock factor protein 1 (Mus musculus, UniProt P38532); experiment: HSF1 potentiators in luciferase reporter cells, confirmation, cell-based, NIH3T3, luminescence, dose retest (AID 435004); assay type: functional;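 also: stress induced by proteasome inhibitor MG132 added 30 min after compound; luciferase reporter driven by HSF1 response element in NIH3T3 cells; actives raise luminescence as potentiators of the MG132 stress response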
T3 sequence (P38532 whole entry): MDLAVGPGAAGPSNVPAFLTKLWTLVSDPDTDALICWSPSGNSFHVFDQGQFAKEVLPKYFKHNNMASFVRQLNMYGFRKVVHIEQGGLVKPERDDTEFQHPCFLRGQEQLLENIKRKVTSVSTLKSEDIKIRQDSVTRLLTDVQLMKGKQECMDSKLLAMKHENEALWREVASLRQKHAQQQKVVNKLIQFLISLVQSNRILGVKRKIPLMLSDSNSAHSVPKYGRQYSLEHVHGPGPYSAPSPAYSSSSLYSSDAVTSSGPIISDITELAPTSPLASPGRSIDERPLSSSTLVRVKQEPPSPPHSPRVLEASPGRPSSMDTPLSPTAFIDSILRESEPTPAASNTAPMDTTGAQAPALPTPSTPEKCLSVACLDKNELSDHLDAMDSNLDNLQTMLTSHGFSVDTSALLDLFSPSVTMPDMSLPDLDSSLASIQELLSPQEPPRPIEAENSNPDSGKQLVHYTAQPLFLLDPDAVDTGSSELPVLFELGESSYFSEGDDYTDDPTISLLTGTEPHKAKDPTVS

[18] = C. albicans growth with fluconazole, confirmation, fluorescence, retest (AID 2467); assay type: functional, cell-based
[19] = HepG2 cell cytotoxicity, dose response, cytotoxicity control for non-replicating M. tuberculosis project (AID 489018); assay type: functional; details: Mycobacterium tuberculosis
[20] = biological target: ATP-dependent molecular chaperone HSP82 (Candida albicans (strain WO-1) (Yeast), UniProt C4YTQ8); experiment: loss of DOC-induced GRE-beta-galactosidase reporter signal, dose response, Hsp90 inhibitor project, S. cerevisiae, luminescence (AID 2400); assay type: functional, cell-based;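 also: beta-galactosidase luminescence from glucocorticoid response element reporter as proxy for Hsp90 function; inhibitor potency where signal loss means Hsp90 inhibition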
[21] = THP-1 cell cytotoxicity, dose response, cytotoxicity control for non-replicating M. tuberculosis project (AID 489025); assay type: functional
[22] = NIH-3T3 fibroblast cytotoxicity, dose response, cytotoxicity control, cell-based, fluorescence, Alamar Blue, secondary assay (AID 2327); assay type: functional;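 also: NIH-3T3 mouse fibroblasts cultured with fluconazole at 8 µg/mL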
[23] = cells; assay type: functional, cell-based
[24] = Vero E6 cell cytotoxicity, dose response, cytotoxicity control for non-replicating M. tuberculosis project, secondary assay (AID 492998); assay type: functional, VeroE6; details: Vero C1008
[25] = test system: INS1; experiment: beta cell apoptosis inhibitors, cytokine rescue, dose response, luminescence, retest (AID 449756); assay type: functional, cell-based; details: Rattus norvegicus;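 also: cell death triggered by IL-1 beta plus TNF-alpha plus IFN-gamma mixture; protective hits raise ATP signal compared with cytokine alone wells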
[26] = cells; assay type: functional, cell-based; remark: listed apart in the source
[27] = biological target: T4, Serine/threonine-protein phosphatase (Candida dubliniensis (strain CD36 / CBS 7987 / NCPF 3949 / NRRLY-17841) (Yeast), UniProt B9W6M3); experiment: calcineurin pathway inhibitors in yeast reporter, dose response, S. cerevisiae, CDRE-lacZ, luminescence, secondary (AID 2388); assay type: functional, cell-based;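 also: yeast reporter cells carrying a calcineurin-responsive lacZ construct stimulated with calcium chloride; luminescent beta-galactosidase reporter signal in whole cells rather than isolated phosphatase activity; potency for inhibition where a drop in reporter signal means calcineurin blockade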
T4 sequence (B9W6M3 whole entry): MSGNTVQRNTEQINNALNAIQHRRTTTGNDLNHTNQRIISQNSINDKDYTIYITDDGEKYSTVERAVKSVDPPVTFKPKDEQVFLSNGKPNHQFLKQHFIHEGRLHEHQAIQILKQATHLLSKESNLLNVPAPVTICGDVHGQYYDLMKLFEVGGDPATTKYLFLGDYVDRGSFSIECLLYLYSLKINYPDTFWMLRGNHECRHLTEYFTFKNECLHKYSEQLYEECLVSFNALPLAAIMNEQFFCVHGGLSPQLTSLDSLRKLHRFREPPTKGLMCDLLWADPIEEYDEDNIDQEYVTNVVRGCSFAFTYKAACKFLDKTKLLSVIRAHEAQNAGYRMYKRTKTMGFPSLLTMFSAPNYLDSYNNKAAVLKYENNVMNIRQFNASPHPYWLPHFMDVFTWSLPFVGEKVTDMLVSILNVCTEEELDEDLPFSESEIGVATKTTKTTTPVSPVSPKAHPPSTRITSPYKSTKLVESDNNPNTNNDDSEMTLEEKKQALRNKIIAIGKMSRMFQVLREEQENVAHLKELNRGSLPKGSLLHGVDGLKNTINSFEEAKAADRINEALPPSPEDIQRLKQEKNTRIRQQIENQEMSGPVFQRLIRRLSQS

[28] = biological target: T5, Coagulation factor XII (Homo sapiens, UniProt P00748); assay type: functional;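 also: activated factor XIIa alpha cleaving a fluorogenic AMC peptide substrate; inhibitor potency from loss of enzyme activity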
T5 sequence (P00748 whole entry): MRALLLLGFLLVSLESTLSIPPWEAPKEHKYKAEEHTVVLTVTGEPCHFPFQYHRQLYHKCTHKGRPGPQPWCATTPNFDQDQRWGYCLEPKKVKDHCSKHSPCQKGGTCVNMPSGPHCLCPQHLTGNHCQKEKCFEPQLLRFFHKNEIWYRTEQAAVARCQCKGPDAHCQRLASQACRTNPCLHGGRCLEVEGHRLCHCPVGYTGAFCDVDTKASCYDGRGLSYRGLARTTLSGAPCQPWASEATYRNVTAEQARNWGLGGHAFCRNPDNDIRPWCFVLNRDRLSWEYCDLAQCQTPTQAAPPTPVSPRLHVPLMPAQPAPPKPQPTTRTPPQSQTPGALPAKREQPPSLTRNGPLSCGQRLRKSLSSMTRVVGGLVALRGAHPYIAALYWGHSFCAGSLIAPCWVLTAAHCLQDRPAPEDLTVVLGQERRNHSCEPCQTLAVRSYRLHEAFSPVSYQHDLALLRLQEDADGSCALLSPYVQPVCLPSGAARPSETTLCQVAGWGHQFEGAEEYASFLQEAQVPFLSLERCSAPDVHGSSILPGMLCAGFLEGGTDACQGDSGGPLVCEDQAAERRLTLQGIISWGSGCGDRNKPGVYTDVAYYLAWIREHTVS

[29] = cells; assay type: functional
[30] = microbe, parasite or virus in culture; assay type: functional; details: Mycobacterium tuberculosis
[31] = Luminescence Cell-Based Dose Retest to Confirm Inhibitors of Cancer Stem Cells. [Related pubchem assays (depositor defined):AID2717, AID2721]; assay type: functional; details: Homo sapiens

Chain of DNA damage-inducible transcript 3 protein (P35639 whole entry): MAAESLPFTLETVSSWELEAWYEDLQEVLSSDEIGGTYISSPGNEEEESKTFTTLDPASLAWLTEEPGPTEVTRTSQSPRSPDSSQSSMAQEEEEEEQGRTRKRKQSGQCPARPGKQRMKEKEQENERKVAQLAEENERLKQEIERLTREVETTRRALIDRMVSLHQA
Chain of Nonstructural protein 1 (Q194T2 whole entry): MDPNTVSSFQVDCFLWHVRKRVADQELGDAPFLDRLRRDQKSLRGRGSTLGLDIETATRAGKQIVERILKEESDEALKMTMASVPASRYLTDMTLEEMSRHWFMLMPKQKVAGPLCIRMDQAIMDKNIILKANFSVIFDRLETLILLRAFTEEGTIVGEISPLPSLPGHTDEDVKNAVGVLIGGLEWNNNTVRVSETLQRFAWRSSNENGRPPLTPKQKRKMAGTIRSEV
Chain of Melanocortin receptor 4 (P32245 whole entry): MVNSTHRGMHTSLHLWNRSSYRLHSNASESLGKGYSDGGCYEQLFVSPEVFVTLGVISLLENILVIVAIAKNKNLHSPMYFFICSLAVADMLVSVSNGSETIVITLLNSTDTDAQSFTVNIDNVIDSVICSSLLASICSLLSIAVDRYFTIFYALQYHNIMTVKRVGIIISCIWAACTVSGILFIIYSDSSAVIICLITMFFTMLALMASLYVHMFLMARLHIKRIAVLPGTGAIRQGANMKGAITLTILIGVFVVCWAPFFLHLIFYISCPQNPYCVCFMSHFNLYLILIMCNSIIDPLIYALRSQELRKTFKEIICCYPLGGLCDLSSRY
Chain of Hexokinase-1 (P19367 whole entry): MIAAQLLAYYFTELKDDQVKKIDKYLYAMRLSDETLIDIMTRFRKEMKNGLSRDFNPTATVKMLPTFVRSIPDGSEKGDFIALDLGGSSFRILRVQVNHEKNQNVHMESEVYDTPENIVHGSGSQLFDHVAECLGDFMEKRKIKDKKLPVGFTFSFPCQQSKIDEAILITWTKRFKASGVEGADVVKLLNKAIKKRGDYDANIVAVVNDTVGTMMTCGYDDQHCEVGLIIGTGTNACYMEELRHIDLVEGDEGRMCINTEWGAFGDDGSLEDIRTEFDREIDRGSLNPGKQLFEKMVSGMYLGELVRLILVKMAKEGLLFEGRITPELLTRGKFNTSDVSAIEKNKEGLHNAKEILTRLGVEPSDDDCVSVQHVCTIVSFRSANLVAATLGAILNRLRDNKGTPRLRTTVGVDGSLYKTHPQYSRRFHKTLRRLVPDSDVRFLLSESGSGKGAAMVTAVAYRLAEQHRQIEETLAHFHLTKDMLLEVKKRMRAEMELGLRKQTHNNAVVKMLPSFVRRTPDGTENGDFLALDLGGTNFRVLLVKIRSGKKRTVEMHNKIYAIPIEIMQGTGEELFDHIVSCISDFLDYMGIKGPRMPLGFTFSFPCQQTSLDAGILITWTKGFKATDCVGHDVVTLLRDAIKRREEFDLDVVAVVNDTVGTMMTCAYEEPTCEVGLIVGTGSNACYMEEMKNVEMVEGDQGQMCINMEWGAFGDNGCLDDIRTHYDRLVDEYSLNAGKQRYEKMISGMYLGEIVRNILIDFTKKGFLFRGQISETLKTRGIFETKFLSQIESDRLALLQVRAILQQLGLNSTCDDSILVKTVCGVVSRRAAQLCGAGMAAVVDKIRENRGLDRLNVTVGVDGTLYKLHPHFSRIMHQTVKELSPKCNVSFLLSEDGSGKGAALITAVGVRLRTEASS
Chain of ATP-dependent molecular chaperone HSP82 (C4YTQ8 whole entry): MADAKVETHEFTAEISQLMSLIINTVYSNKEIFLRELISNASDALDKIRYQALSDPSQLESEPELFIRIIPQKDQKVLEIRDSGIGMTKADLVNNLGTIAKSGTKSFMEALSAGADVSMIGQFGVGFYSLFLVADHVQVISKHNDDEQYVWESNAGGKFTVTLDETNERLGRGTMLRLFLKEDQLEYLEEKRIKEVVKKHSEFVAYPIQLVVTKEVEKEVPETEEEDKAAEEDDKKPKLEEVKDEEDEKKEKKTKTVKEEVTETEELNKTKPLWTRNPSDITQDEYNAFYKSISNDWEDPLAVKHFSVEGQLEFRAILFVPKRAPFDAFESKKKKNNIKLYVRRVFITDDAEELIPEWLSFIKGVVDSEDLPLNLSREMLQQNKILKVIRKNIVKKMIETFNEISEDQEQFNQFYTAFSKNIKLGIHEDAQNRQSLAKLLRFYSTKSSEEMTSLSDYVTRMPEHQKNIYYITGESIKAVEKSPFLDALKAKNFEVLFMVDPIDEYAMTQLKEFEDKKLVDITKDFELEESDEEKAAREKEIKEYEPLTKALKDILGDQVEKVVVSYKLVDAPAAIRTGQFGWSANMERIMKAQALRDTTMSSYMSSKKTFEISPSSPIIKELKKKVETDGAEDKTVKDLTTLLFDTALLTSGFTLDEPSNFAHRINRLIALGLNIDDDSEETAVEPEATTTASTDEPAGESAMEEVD

SMILES: CC(=NNC(=S)Nc1cccc(Cl)c1)c1ccccn1
- EC50 [1]: > 80 µM (inactive)
- AC50 [2]: 16.2 µM (active)
- EC50 [3]: 0.615 µM (active)
- AC50 [4]: 0.341 µM (active)
- IC50 [5]: 15.4 µM (active)

SMILES: CN(C)CCCN(C(=O)c1cc2cc([N+](=O)[O-])ccc2s1)c1nc2cc3c(cc2s1)OCCO3
- EC50 [6]: 0.148 µM (active)
- EC50 [7]: 6.94 µM (active)
- EC50 [8]: > 100 µM (inactive)
- EC50 [9]: < 0.1 µM (active)
- EC50 [10]: 2.96 µM (inconclusive)
- CC50 [11]: 24.5 µM (active)
- EC50 [12]: > 89.2 µM (inactive)
- EC50 [13]: 2.89 µM (inconclusive)
- EC50 [14]: 7.44 µM (active)
- EC50 [15]: 1.65 µM (active)

SMILES: CCC(CC)c1nnc(NC(=O)c2c(C)nn(Cc3ccccc3Cl)c2C)s1
- Absolute IC50 (CHOP) [16]: < 10 µM

SMILES: C=CCn1c(CCNC(=O)c2ccc(Cl)c(Cl)c2)nnc1SCCOc1ccc(OC)cc1
- EC50 [17]: 16.8 µM (active)
- Absolute IC50 (CHOP) [16]: 10 µM

SMILES: O=C(N/N=C/c1ccccc1O)c1cccc(C(F)(F)F)c1
- EC50 [18]: 1.39 µM (active)
- CC50 [19]: 6.7 µM (active)
- EC50 [20]: > 150 µM (inactive)
- CC50 [21]: 0.106 µM (active)
- EC50 [22]: > 150 µM (inactive)
- EC50 [23]: 7.53 µM (active)
- CC50 [24]: 3.65 µM (active)
- AC50 [25]: 1.11 µM (active)
- EC50 [26]: > 350 µM (not active)
- EC50 [27]: > 180 µM (inactive)

SMILES: O=C1CC(N2CCN(Cc3ccc(Cl)cc3)CC2)C(=O)N1CCc1ccccc1 (configuration not stated)
- IC50 [28]: > 50 µM (inactive)

SMILES: S=C1SCN(Cc2ccco2)CN1Cc1ccco1
- CC50 [21]: 8.73 µM (active)
- IC50 [29]: 22.4 µM (active)
- CC50 [24]: 18.4 µM (active)
- AC50 [4]: 0.574 µM (active)
- CC50 [30]: 16.8 µM (active)

SMILES: COc1ccc(C)cc1NC(=O)CSc1nnc(COc2ccc(Cl)cc2)n1Cc1ccco1
- IC50 [28]: > 50 µM (inactive)
- EC50 [17]: 259 µM (active)
- AC50 [31]: 5.42 µM (active)
